Measurements as given in patent publication US7435837B2, “Dihydrobenzofuranyl alkanamine derivatives and methods for using same” (Wyeth, priority 2003, dated 2008).
Like-named read-outs stand apart in the source and are kept apart here.

Tests used:
[1] = target: T1, human 5-hydroxytryptamine-2C (h5-HT2C) receptor (Homo sapiens, UniProt P28335); assay: [125I]DOI binding to membranes of CHO cells expressing the human 5-HT2C receptor; conditions: [125I]DOI radioligand, CHO cell membranes, room temperature 60 min; read-out: 5-HT2C Affinity Ki
T1 construct: expressed in transfected cells; host or cells: CHO (Chinese Hamster Ovary) cells; membranes
T1 sequence (P28335 33-458): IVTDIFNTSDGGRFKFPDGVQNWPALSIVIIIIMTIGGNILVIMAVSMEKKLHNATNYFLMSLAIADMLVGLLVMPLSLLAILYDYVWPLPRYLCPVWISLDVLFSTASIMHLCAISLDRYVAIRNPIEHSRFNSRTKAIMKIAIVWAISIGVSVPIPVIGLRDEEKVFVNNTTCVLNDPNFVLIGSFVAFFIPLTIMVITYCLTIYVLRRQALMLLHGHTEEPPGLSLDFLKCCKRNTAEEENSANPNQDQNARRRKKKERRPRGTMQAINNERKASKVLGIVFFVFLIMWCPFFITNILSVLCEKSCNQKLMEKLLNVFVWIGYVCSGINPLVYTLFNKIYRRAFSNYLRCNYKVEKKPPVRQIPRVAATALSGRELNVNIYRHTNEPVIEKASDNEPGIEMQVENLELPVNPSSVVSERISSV

human 5-HT2C receptor = target: T2, human 5-HT2C receptor (Homo sapiens, UniProt P28335); assay: 5-HT2C receptor-stimulated calcium mobilization (FLIPR) in CHO cells; assay type: cell-based; conditions: for Emax: CHO; for EC50: calcium mobilization, CHO cells stably expressing human 5-HT2C, read-out: 5-HT2C Function EC50;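 as to all read-outs here: Fluo-3-AM fluorescence read on FLIPR every 1 s, agonist added after 10 baseline reads, response taken as peak minus lowest raw fluorescence count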
T2 sequence (P28335 33-458): T1 sequence (P28335 33-458)

[2] = percentage of the response observed with a maximally effective concentration of 5-HT, read-out: 5-HT2C Function Emax (%)
[3] = percentage of the response observed with a maximally effective concentration of 5-HT

| SMILES | Ki [1] [nM] | Emax (human 5-HT2C receptor; [2]) [%] | EC50 (human 5-HT2C receptor) [nM] | 5-HT2C Function Emax (%) (human 5-HT2C receptor; [3]) | Emax (human 5-HT2C receptor; read-out: 5-HT2C Function Emax (%), percentage of the response observed with a maximally effective concentration of 5-HT) [%] |
| --- | --- | --- | --- | --- | --- |
| NCC1Cc2cc(Cl)cc(-c3ccccc3)c2O1 (single isomer, unassigned; (+)) [Example 85, (+)-1-(5-chloro-7-phenyl-2,3-dihydro-1-benzofuran-2-yl)methanamine] | 5 | 100 | 557 |  |  |
| Cc1cc2c(c(-c3ccc(Cl)cc3)c1)OC(CN)C2 (racemic) [Example 292, (±)-{[7-(4-chlorophenyl)-5-methyl-2,3-dihydro-1-benzofuran-2-yl]methyl}amine] | 4.9 | 100 | 66 |  |  |
| Cc1cc2c(c(-c3ccccc3C(F)(F)F)c1)OC(CN)C2 (racemic) [Example 287, (±)-({5-methyl-7-[2-(trifluoromethyl)phenyl[-2,3-dihydro-7-benzofuran-2-yl}methyl)amine] | 0.13 | 90 | 21 |  |  |
| NCC1Cc2cccc(-c3ccc(C(F)(F)F)cc3)c2O1 (racemic) [Example 82, (±)-1 {7-[4-(trifluoromethyl)phenyl]-2,3-dihydro-1-benzofuran-2-yl}methanamine] | 15 | 95 | 275 |  |  |
| CNCC1Cc2cc(OC)cc(-c3c(C)cccc3C)c2O1 (racemic) [Example 504, (±)-{[7-(2,6-dimethylphenyl)-5-methoxy-2,3-dihydro-1-benzofuran-2-yl]methyl}methylamine] | 1.2 | 90 | 27 |  |  |
| Cc1cccc(C)c1-c1cc(F)cc2c1OC(CN)C2 (single isomer, unassigned; (-)) [Example 229, (−)-{[7-(2,6-dimethylphenyl)-5-fluoro-2,3-dihydro-1-benzofuran-2-yl]methyl}amine] | 0.4 |  | 6 | 100 |  |
| NCC1Cc2cccc(-c3ccsc3)c2O1 (racemic) [Example 44, (±)-1-(7-thien-3-yl-2,3-dihydro-1-benzofuran-2-yl)methanamine] | 3 | 100 | 7 |  |  |
| CNCC1Cc2cc(Cl)cc(-c3ccsc3)c2O1 (single isomer, unassigned; (+)) [Example 93, (+)-N-[(5-chloro-7-thien-3-yl-2,3-dihydro-1-benzofuran-2-yl)methyl]-N-methylamine] | 13 | 80 | 874 |  |  |
| NCC1Cc2cccc(-c3cc(Cl)ccc3Cl)c2O1 (single isomer, unassigned; (+)) [Example 164, (+)-{[7-(2,5-dichlorophenyl)-2,3-dihydro-1-benzofuran-2-yl]methyl}amine] | 0.28 |  | 0.3 | 100 |  |
| COc1ccccc1-c1cc(C)cc2c1OC(CN)C2 (racemic) [Example 284, (±)-{[7-(2-methoxyphenyl)-5-methyl-2,3-dihydro-1-benzofuran-2-yl]methyl}amine] | 0.8 | 100 | 7 |  |  |
| NCC1Cc2cc(F)cc(-c3cccnc3)c2O1 (single isomer, unassigned; (+)) [Example 208, (+)-{[5-fluoro-7-pyridin-3-yl-2,3-dihydro-1-benzofuran-2-yl]methyl}amine] | 1.9 |  | 0.36 | 100 |  |
| NCC1Cc2c(cccc2-c2ccccc2C(F)(F)F)O1 (racemic) [Example 122, (±)-1-{4-[2-(trifluoromethyl)phenyl]-2,3-dihydro-1-benzofuran-2-yl}methanamine] | 95 | 70 | 931 |  |  |
| COc1cccc(-c2cccc3c2OC(CN)C3)c1OC (racemic) [Example 155, (±)-{[7-(2,3-dimethoxyphenyl)-2,3-dihydro-1-benzofuran-2-yl]methyl}amine] | 9 | 90 | 43 |  |  |
| NCC1Cc2cc(F)cc(-c3ccc(Cl)cc3Cl)c2O1 (racemic) [Example 216, (±)-{[7-(2,4-dichlorophenyl)-5-fluoro-2,3-dihydro-1-benzofuran-2-yl]methyl}amine] | 0.7 |  | 0.2 |  | 100 |
| CNCC1Cc2cccc(-c3cccc(Cl)c3)c2O1 (racemic) [Example 416, (±)-[(N-methyl-1-[7-(3-chlorophenyl)-2,3-dihydro-1-benzofuran-2-yl]methanamine] | 1.6 | 70 | 467 |  |  |
| NCC1Cc2cc(F)cc(-c3ccccn3)c2O1 (racemic) [Example 205, (±)-[(5-fluoro-7-pyridin-2-yl-2,3-dihydro-1-benzofuran-2-yl)methyl]amine] | 3 | 80 | 280 |  |  |

| SMILES | Ki [1] [nM] | Emax (human 5-HT2C receptor; [2]) [%] | EC50 (human 5-HT2C receptor) [nM] | 5-HT2C Function Emax (%) (human 5-HT2C receptor; [3]) | Emax (human 5-HT2C receptor; read-out: 5-HT2C Function Emax (%), percentage of the response observed with a maximally effective concentration of 5-HT) [%] |
| --- | --- | --- | --- | --- | --- |
| CNCC1Cc2cc(F)cc(-c3ccccc3F)c2O1 (racemic) [Example 438, (±)-{[5-fluoro-7-(2-fluorophenyl)-2,3-dihydro-1-benzofuran-2-yl]methyl}methylamine] | 2.4 | 70 | 68 |  |  |
| CNCC1Cc2cc(C)cc(-c3c(C)cccc3C)c2O1 (racemic) [Example 489, (±)-{[7-(2,6-dimethylphenyl)-5-methyl-2,3-dihydro-1-benzofuran-2-yl]methyl}methylamine] | 3 | 90 | 39 |  |  |
| COc1cccc(-c2cccc3c2OC(CN)C3)c1 (single isomer, unassigned; (+)) [Example 133, (+)-1-[7-(3-methoxyphenyl)-2,3-dihydro-1-benzofuran-2-yl]methanamine] | 3.6 | 80 | 66 |  |  |
| Cc1cc2c(c(-c3ccccc3C)c1)OC(CN)C2 (racemic) [Example 282, (±)-{[7-(2-methylphenyl)-5-methyl-2,3-dihydro-1-benzofuran-2-yl]methyl}amine] | 1.7 | 90 | 43 |  |  |
| Cc1ccccc1-c1cccc2c1OC(CN)C2 (single isomer, unassigned; (+)) [Example 48, (+)-1-[7-(2-methylphenyl)-2,3-dihydro-1-benzofuran-2-yl]methanamine] | 0.3 | 100 | 2.4 |  |  |
| NCC1Cc2cccc(-c3ccc(F)cc3F)c2O1 (single isomer, unassigned; (-)) [Example 148, (−)-1-[7-(2,4-difluorophenyl)-2,3-dihydro-1-benzofuran-2-yl]methanamine] | 12 |  | 290 | 70 |  |
| NCC1Cc2c(cccc2-c2ccccc2)O1 (single isomer, unassigned; (+)) [Example 2, (+)-1-(4-phenyl-2,3-dihydro-1-benzofuran-2-yl)methanamine] | 16 | 90 | 61 |  |  |
| Cc1cccc(-c2cc(C)cc3c2OC(CN)C3)c1 (racemic) [Example 289, (±)-{[7-(3-methylphenyl)-5-methyl-2,3-dihydro-1-benzofuran-2-yl]methyl}amine] | 1 | 100 | 44 |  |  |
| COc1ccc(-c2cccc3c2OC(CN)C3)c(OC)c1 (racemic) [Example 143, (±)-1-[7-(2,4-dimethoxyphenyl)-2,3-dihydro-1-benzofuran-2-yl]methanamine] | 6.3 | 90 | 1 |  |  |
| CNCC1Cc2cccc(-c3ccccc3Cl)c2O1 (racemic) [Example 409, (±)-[(N-methyl-1-[7-(2-chlorophenyl)-2,3-dihydro-1-benzofuran-2-yl]methanamine] | 3 | 90 | 22 |  |  |
| NCC1Cc2cc(Cl)cc(-c3ccc(Cl)cc3Cl)c2O1 (single isomer, unassigned; (+)) [Example 253, (+)-{[5-chloro-7-(2,4-dichlorophenyl)-2,3-dihydro-1-benzofuran-2-yl]methyl}amine] | 8.6 |  | 251 | 90 |  |
| Cc1cccc(C)c1-c1cccc2c1CC(CN)O2 (single isomer, unassigned; (+)) [Example 126, (+)-1-[4-(2,6-dimethylphenyl)-2,3-dihydro-1-benzofuran-2-yl]methanamine] | 17 | 40 | 2720 |  |  |
| Cc1ccc(C)c(-c2cc(F)cc3c2OC(CN)C3)c1 (racemic) [Example 222, (±)-{[7-(2,5-dimethylphenyl)-5-fluoro-2,3-dihydro-1-benzofuran-2-yl]methyl}amine] | 18 | 80 | 120 |  |  |
| Cc1ccccc1-c1cc(Cl)cc2c1OC(CN)C2 (single isomer, unassigned; (+)) [Example 96, (+)-1-[5-chloro-7-(2-methylphenyl)-2,3-dihydro-1-benzofuran-2-yl]methanamine] | 1 |  | 27 | 100 |  |
| CNCC1Cc2cc(C)cc(-c3c(Cl)cccc3Cl)c2O1 (racemic) [Example 490, (±)-{[7-(2,6-dichlorophenyl)-5-methyl-2,3-dihydro-1-benzofuran-2-yl]methyl}methylamine] | 1 | 100 | 6 |  |  |
